According to ChEMBL document CHEMBL5104193, “Hypoxia-Activated Prodrugs with Dual COX-2/CA Inhibitory Effects on Attenuating Cardiac Inflammation under Hypoxia” (J Med Chem, 2022):
The source made the active and inactive calls. No cut-off for these calls is given here.

Tests used:
[1] = test system: H9c2; assay: Protection against LPS/hypoxia induced apoptosis in rat H9c2 cells assessed as reduction in green fluorescence in presence of 2-(4-(5-oxo-5-((5-sulfamoyl-1,3,4-thiadiazol-2-yl)amino)pentyl)-1H-1,2,3-triazol-1-yl)acetic acid by confocal microscopy analysis; assay type: functional, cell-based
[2] = Toxicity in Wistar rat assessed as change in ALT level in presence of 2-(4-(5-oxo-5-((5-sulfamoyl-1,3,4-thiadiazol-2-yl)amino)pentyl)-1H-1,2,3-triazol-1-yl)acetic acid; details: in vivo
[3] = test system: H9c2; assay: Anti-inflammatory activity in rat H9c2 cells assessed as downregulation of cytochrome C expression at 10 uM by Western blot analysis; assay type: functional, cell-based
[4] = test system: H9c2; assay: Anti-inflammatory activity in LPS/hypoxia induced rat H9c2 cells assessed as reduction of IL-6 protein expression at 10 uM in presence of 2-(4-(5-oxo-5-((5-sulfamoyl-1,3,4-thiadiazol-2-yl)amino)pentyl)-1H-1,2,3-triazol-1-yl)acetic acid by Western blot analysis; assay type: functional, cell-based
[5] = test system: H9c2; assay: Protection against LPS/hypoxia induced cell injury in rat H9c2 cells assessed as recovery of cell viability at 10 uM by CCK-8 assay; assay type: functional, cell-based
[6] = test system: H9c2; assay: Antiinflammatory activity in LPS/hypoxia induced CA9 knockdown rat H9c2 cells assessed as decrease in IL-6 protein level at 10 uM by Western blot analysis; assay type: functional, cell-based
[7] = test system: H9c2; assay: Reversal of LPS/hypoxia induced mitochondrial membrane potential loss in rat H9c2 cells in presence of 2-(4-(5-oxo-5-((5-sulfamoyl-1,3,4-thiadiazol-2-yl)amino)pentyl)-1H-1,2,3-triazol-1-yl)acetic acid by JC-1 dye based flow cytometry analysis; assay type: functional, cell-based
[8] = test system: H9c2; assay: Anti-inflammatory activity in LPS/hypoxia induced rat H9c2 cells assessed as reduction of IL-1beta protein expression at 10 uM in presence of 2-(4-(5-oxo-5-((5-sulfamoyl-1,3,4-thiadiazol-2-yl)amino)pentyl)-1H-1,2,3-triazol-1-yl)acetic acid by Western blot analysis; assay type: functional, cell-based
[9] = test system: H9c2; assay: Inhibition of intracellular ROS level in LPS/hypoxia induced rat H9c2 cells in presence of 2-(4-(5-oxo-5-((5-sulfamoyl-1,3,4-thiadiazol-2-yl)amino)pentyl)-1H-1,2,3-triazol-1-yl)acetic acid by DCFH-DA probe based fluorescence confocal microscopy analysis; assay type: functional, cell-based
[10] = test system: H9c2; assay: Anti-inflammatory activity in LPS/hypoxia induced rat H9c2 cells assessed as reduction of TNF-alpha protein expression at 10 uM by Western blot analysis; assay type: functional, cell-based
[11] = test system: H9c2; assay: Protection against LPS/hypoxia induced cell injury in CA9 knockdown rat H9c2 cells assessed as recovery of cell viability at 10 uM by CCK-8 assay; assay type: functional, cell-based
[12] = test system: H9c2; assay: Reversal of ATP level in LPS/hypoxia induced rat H9c2 cell in presence of 2-(4-(5-oxo-5-((5-sulfamoyl-1,3,4-thiadiazol-2-yl)amino)pentyl)-1H-1,2,3-triazol-1-yl)acetic acid and Na2WO4 by multimode plate reader analysis; assay type: functional, cell-based
[13] = test system: Rattus norvegicus; assay: (§1) Antiinflammatory activity against LPS/talc powder induced pericarditic Wistar rat assessed as reduction in torsion T wave inversion at 20 mg/kg, ip pretreated for 2 hrs followed by LPS/tal powder stimulation measured after 48 hrs in presence of 2-(4-(5-oxo-5-((5-sulfamoyl-1,3,4-thiadiazol-2-yl)amino)pentyl)-1H-1,2,3-triazol-1-yl)acetic acid by ECG analysis; assay type: functional, organism-based; details: time 50.0 hrs
[14] = test system: Rattus norvegicus; assay: as §1, with “in” for “against”, “rat model” for “rat”, “increase” for “reduction”, “CK-MB level in serum” for “torsion T wave inversion”, “(reference value: 4140+/-256.23 U/L)” for “by ECG analysis”; assay type: functional; details: time 50 hrs
[15] = test system: H9c2; assay: Protection against LPS/hypoxia induced apoptosis in rat H9c2 cells assessed as reduction in red fluorescence by confocal microscopy analysis; assay type: functional, cell-based
[16] = test system: H9c2; assay: Antiinflammatory activity in LPS/hypoxia induced CA9 knockdown rat H9c2 cells assessed as decrease in TNF-alpha protein level at 10 uM by Western blot analysis; assay type: functional, cell-based
[17] = Toxicity in Wistar rat assessed as change in BUN level in presence of 2-(4-(5-oxo-5-((5-sulfamoyl-1,3,4-thiadiazol-2-yl)amino)pentyl)-1H-1,2,3-triazol-1-yl)acetic acid; details: in vivo
[18] = Stability of the compound assessed as NTR (unknown origin) mediated hydrolysis by measuring half life by UV spectrophotometry; assay type: ADME; details: human
[19] = test system: Rattus norvegicus; assay: as §1, with “in” for “against”, “increase” for “reduction”, “cTNI level in serum” for “torsion T wave inversion”, “(reference value: 0.167+/-0.025 ng/ml)” for “by ECG analysis”; assay type: functional; details: time 50 hrs
[20] = test system: H9c2; assay: Anti-inflammatory activity in LPS/hypoxia induced rat H9c2 cells assessed as reduction of IL-6 protein expression at 10 uM by Western blot analysis; assay type: functional, cell-based
[21] = test system: H9c2; assay: Protection against LPS/hypoxia induced apoptosis in rat H9c2 cells assessed as reduction in red fluorescence in presence of 2-(4-(5-oxo-5-((5-sulfamoyl-1,3,4-thiadiazol-2-yl)amino)pentyl)-1H-1,2,3-triazol-1-yl)acetic acid by confocal microscopy analysis; assay type: functional, cell-based
[22] = test system: H9c2; assay: Protection against LPS/hypoxia induced cell injury in rat H9c2 cells assessed as recovery of cell viability in presence of 2-(4-(5-oxo-5-((5-sulfamoyl-1,3,4-thiadiazol-2-yl)amino)pentyl)-1H-1,2,3-triazol-1-yl)acetic acid and Na2WO4 by CCK-8 assay; assay type: functional, cell-based
[23] = test system: Rattus norvegicus; assay: as §1, with “U” for “torsion T”, “flattening” for “inversion”; assay type: functional, organism-based; details: time 50.0 hrs
[24] = Toxicity in Wistar rat assessed as change in CRE level in presence of 2-(4-(5-oxo-5-((5-sulfamoyl-1,3,4-thiadiazol-2-yl)amino)pentyl)-1H-1,2,3-triazol-1-yl)acetic acid; details: in vivo
[25] = test system: H9c2; assay: Anti-inflammatory activity in LPS/hypoxia induced rat H9c2 cells assessed as increase in VEGF expression at 10 uM in presence of 2-(4-(5-oxo-5-((5-sulfamoyl-1,3,4-thiadiazol-2-yl)amino)pentyl)-1H-1,2,3-triazol-1-yl)acetic acid by Western blot analysis; assay type: functional, cell-based
[26] = test system: H9c2; assay: Anti-inflammatory activity in LPS/hypoxia induced rat H9c2 cells assessed as reduction of IL-1 beta protein expression at 10 uM by Western blot analysis; assay type: functional, cell-based
[27] = test system: H9c2; assay: Protection against LPS/hypoxia induced cell injury in rat H9c2 cells assessed as recovery of cell viability in presence of 2-(4-(5-oxo-5-((5-sulfamoyl-1,3,4-thiadiazol-2-yl)amino)pentyl)-1H-1,2,3-triazol-1-yl)acetic acid by CCK-8 assay (reference value: 69.0%); assay type: functional
[28] = test system: H9c2; assay: Protection against LPS/ hypoxia induced cell injury in rat H9c2 cells assessed as recovery of cell viability at 1 to 10 uM by CCK-8 assay; assay type: functional, cell-based; details: dose 1-10 µM
[29] = test system: H9c2; assay: Anti-inflammatory activity in LPS/hypoxia induced rat H9c2 cells assessed as reduction of TNF-alpha protein expression at 10 uM in presence of 2-(4-(5-oxo-5-((5-sulfamoyl-1,3,4-thiadiazol-2-yl)amino)pentyl)-1H-1,2,3-triazol-1-yl)acetic acid by Western blot analysis; assay type: functional, cell-based

With `COc1ccc2c(c1)c(CC(=O)O)c(C)n2C(=O)c1ccc(Cl)cc1` [INDOMETHACIN] the Activity [1] was “Active”, the Activity [2] was “Toxic” and the Activity [3] was “Active”. For the same compound, the Activity [4] was “Active”, the Activity [5] was “Active” and the Activity [6] was “Active”. For the same compound, the Activity [7] was “Active”, the Activity [8] was “Active” and the inhibition [9] was “Active”. For the same compound, the Activity [10] was “Active”, the Activity [11] was “Active” and the Activity [12] was “Active”. For the same compound, the Activity [13] was “Active”, the Activity [14] was 2620 U/L and the Activity [15] was “Active”. The Activity [16] was “Active”, the Activity [17] was “Toxic” and the t1/2 [18] was 21.6 min. For the same compound, the Activity [19] was 0.121 ng/mL, the Activity [20] was “Active” and the Activity [21] was “Active”. The Activity [22] was “Active”, the Activity [23] was “Active” and the Activity [24] was “Toxic”. The Activity [25] was “Active”, the Activity [26] was “Active” and the Activity [27] was 91.8%. The Activity [28] was “Active” and the Activity [29] was “Active”.
